One data set deals with washed human platelets. The data set is described as follows: Inhibition of ADP-induced platelet aggregation in washed human platelets. The class given is cell-based. The conditions noted are these: for IC50: ADP agonist challenge typically 1-5 μM, average of two experiments or more; for % inhibition of ADP-induced platelet aggregation at fixed concentration: antagonist at 0.3 μM, ADP typically 1-5 μM. The procedure:
Isolation of Platelets: Human blood is obtained from informed healthy adult volunteers. Blood is collected into one-sixth volume of acid/citrate/dextrose (ACD) buffer (85 mM sodium citrate, 65 mM citric acid, and 110 mM glucose). Collected blood is placed in a water bath at 37° C. for 30 minutes. Blood is then centrifuged at 275×g for 16 minutes at room temperature and the platelet-rich plasma is removed and centrifuged at 2200×g for 13 minutes at room temperature. The platelet pellet is resuspended in 40 mL of HEPES-buffered Tyrode's solution (137 mM NaCl, 2.7 mM KCl, 1 mM MgCl2, 2 mM CaCl2, 12 mM NaHCO3, 0.36 mM NaH2PO4, 5.5 mM glucose, 5 mM HEPES pH 7.4, 0.35% bovine serum albumin or 0.35% human serum albumin) containing 10 U/mL heparin and 5 μM (final concentration) prostaglandin I2 (PGI2). The platelet suspension is incubated in a 37° C. water bath for 10 minutes and then 5 μM (final conc.) PGI2 is added just before centrifugation at 1900×g for 8 minutes. The resulting pellet is resuspended in 40 mL of HEPES-buffered Tyrode's solution containing 5 μM (final concentration) PGI2 and then is incubated for 10 minutes in a 37° C. water bath. A small aliquot (500 μL) of the platelet suspension is removed for platelet counting. Prior to centrifugation 5 μM (final concentration) PGI2 is added to the suspension and then the suspension is centrifuged at 1900×g for 8 minutes. The pellet is resuspended at a density of 5×10^8 cells/mL in HEPES-buffered Tyrode's solution containing 0.05 U/mL apyrase. Aggregation Studies: ADP-induced platelet aggregation is determined by measuring the transmission of light through a 0.5 ml suspension of stirred (1000 rpm) washed platelets in a lumi-aggregometer at 37° C. (Chrono-Log Corp. Havertown, Pa.). The baseline of the instrument is set using 0.5 ml of Hepes-buffered Tyrode's solution. Prior to aggregation measurements, the platelet suspension is supplemented with 1 mg/ml fibrinogen. Platelet aggregation is initiated by the addition of indicated concentrations of ADP or other agonists, and the light transmission is continuously recorded for at least 8 min. When inhibitors of platelet aggregation are tested, platelets are incubated for 2 min in the presence of indicated concentrations of inhibitor before addition of ADP or other agonists, and the response is recorded for at least 8 min. The potency of agonists and inhibitors of platelet aggregation is calculated from both the rate of aggregation and the maximal extent of aggregation obtained for each determination by fitting the data to a four-parameter logistic equation using the GraphPad software package (GraphPad Corp. San Diego, Calif.).
IC50 values represent the concentration of antagonist necessary to inhibit by 50% the aggregation elicited by a given concentration of ADP.
The agonist challenge (ADP) was typically in the range of 1-5 μM. Data are presented in μM and are from the average of two experiments or more.

Data set [1] is described as follows: Oral bioavailability (%F) following oral vs intravenous administration in rats. The conditions noted are these: rat; for bioavailability: male, Sprague-Dawley, plasma, po. The class given is in vivo, male Sprague-Dawley rats. The procedure:
These compounds were administered intravenously and orally to compare the extent of absorption by the oral route to the intravenous route and evaluate their ability to inhibit platelet aggregation in vivo. The following brief protocol describes the experiment methodology.
While anesthetized by an inhaled anesthetic, male Sprague-Dawley rats were surgically cannulated in the jugular vein for blood sample collection in order to assess systemic exposure of the compound after oral or intravenous administration and platelet aggregation. For the oral studies, compounds were administered as suspensions of the free acid or sodium salt forms, or as solutions of the sodium salt forms. Animals were allowed 48 hours to recover prior to dose administration.
A blood samples was taken immediately prior to compound administration. This sample was used to assess the baseline platelet aggregation and potential drug interference in the LC/MS/MS analysis. Compound was administered by either oral gavage or tail vein and blood samples were withdrawn for plasma analysis at up to 12 time points ranging from 5 min to 24 hours following compound administration. LC/MS/MS was used to measure the amount of compound in the plasma after both routes of administration and the plasma exposure was compared between the oral and IV routes (%F). %F is the % of the administered dose that is absorbed after oral administration. […] The in vivo platelet aggregation data that was acquired at similar time points was then compared to the plasma concentration and a calculation of the concentration needed to inhibit platelet aggregation was made.
The bioavailability of certain compounds of the present invention was determined following oral administration in rats, according to the protocol of Example 5. The compounds were administered as either a suspension of the free acid forms, a suspension of the sodium salt forms, or as a solution of the sodium salt forms.

The mark [2] stands for this setting: Homo sapiens, Platelet, read-out: PLATELET DATA IC50 Washed Platelets, washed human platelets.
[3] abbreviates: administered as solution of the sodium salt form, read-out: % F, salt solution.
The mark [4] stands for this setting: administered as suspension of the free acid form, read-out: % F, free acid suspension.
[5] abbreviates: read-out: PLATELET DATA IC50 Washed Platelets, washed human platelets.
The mark [6] stands for this setting: administered as suspension of the sodium salt form, read-out: % F, salt suspension.

Like-named read-outs stand apart in the source and are kept apart here.

With `CCNC(=O)Nc1ncnc2c1ncn2C1OC(COc2ccccc2C(=O)O)C2O[C@H](/C=C/c3ccccc3)OC21` (some centres unmarked) [Compound 1], in the data set on washed human platelets (setting [2]), the 50% inhibitory concentration (IC50) stood at 319 nM. Further, the bioavailability was around 39% in data set [1] (setting [3]) and 8 to 13% in data set [1] (setting [4]). Moreover, the “bioavailability following oral administration (in words)” value in data set [1] is “high bioavailability”. Also, in data set [1] (administered as suspension of the free acid form), the “% F, free acid suspension” value is 8.7-13.1%.

For `CCNC(=O)Nc1ncnc2c1ncn2C1OC(COc2c(OC)cccc2C(=O)O)C2O[C@H](/C=C/c3ccccc3)OC21` (some centres unmarked) [Compound 2], the IC50 in the data set on washed human platelets (setting [2]) worked out at 279 nM.

Take `CCNC(=O)Nc1ncnc2c1ncn2C1OC(COc2cc(OC)ccc2C(=O)O)C2O[C@H](/C=C/c3ccccc3)OC21` (some centres unmarked) [Compound 3]: the IC50 with washed human platelets (setting [2]) was 404 nM.

For the molecule `CCNC(=O)Nc1ncnc2c1ncn2C1OC(COc2ccc(F)cc2C(=O)O)C2O[C@H](/C=C/c3ccccc3)OC21` (some centres unmarked) [Compound 4], the IC50 in the data set on washed human platelets (setting [2]) turned out to be 105 nM.

`CCNC(=O)Nc1ncnc2c1ncn2C1OC(COc2ccc(C)cc2C(=O)O)C2O[C@H](/C=C/c3ccccc3)OC21` (some centres unmarked) [Compound 5]: in the data set on washed human platelets (setting [2]), the IC50 came to 536 nM.

In the case of `CCNC(=O)Nc1ncnc2c1ncn2C1OC(COc2ccccc2CC(=O)O)C2O[C@H](/C=C/c3ccccc3)OC21` (some centres unmarked) [Compound 6], in the data set on washed human platelets (setting [2]), the IC50 was 297 nM.

For `CCNC(=O)Nc1ncnc2c1ncn2C1OC(COc2cc(F)ccc2C(=O)O)C2O[C@H](/C=C/c3ccccc3)OC21` (some centres unmarked) [Compound 7], the IC50 in the data set with washed human platelets (setting [2]) amounted to 385 nM.

As for `CCNC(=O)Nc1ncnc2c1ncn2C1OC(COc2cccc(F)c2C(=O)O)C2OC(/C=C/c3ccccc3)OC21` (centres unmarked) [Compound 8], in the data set with washed human platelets (setting [2]), the IC50 was 134 nM.

Take `CCNC(=O)Nc1ncnc2c1ncn2C1OC(COc2ccc(OC)cc2C(=O)O)C2O[C@H](/C=C/c3ccccc3)OC21` (some centres unmarked) [Compound 9]: the IC50 in the data set with washed human platelets (setting [2]) was 744 nM.

With `CCNC(=O)Nc1ncnc2c1ncn2C1OC(COc2ccccc2CC(=O)O)C2OC(c3ccc(F)cc3)OC21` (centres unmarked) [Compound 11], in the data set on washed human platelets (setting [2]), the concentration for half-maximal inhibition (IC50) came to 570 nM.

Consider `CCNC(=O)Nc1ncnc2c1ncn2C1OC(COc2ccccc2C(=O)O)C2O[C@H](c3ccc(F)cc3)OC21` (some centres unmarked) [Compound 12], for which the IC50 with washed human platelets (setting [2]) was 200 nM.

Take `CCNC(=O)Nc1ncnc2c1ncn2C1OC(COc2ccc(F)cc2C(=O)O)C2O[C@H](c3ccc(F)cc3)OC21` (some centres unmarked) [Compound 13]: the IC50 in the data set with washed human platelets (setting [2]) was below 100 nM; in the data set on washed human platelets (setting [5]), 89 nM.

`CCNC(=O)Nc1ncnc2c1ncn2C1OC(COc2cc(OC)ccc2C(=O)O)C2OC(c3ccc(F)cc3)OC21` (centres unmarked) [Compound 14, 2-[6-[6-(3-Ethyl-ureido)-purin-9-yl]-2-(4-fluoro-phenyl)-tetrahydro-furo[3,4-d][1,3]dioxol-4-ylmethoxyl]-4-methoxy-benzoic acid]: the IC50 is below 100 nM with washed human platelets (setting [2]) and 96 nM in the data set with washed human platelets (setting [5]). Also, the bioavailability was around 44% in data set [1] (setting [3]) and 21.5 to 22.1% in data set [1] (setting [6]). In data set [1], the “bioavailability following oral administration (in words)” value is “high bioavailability”.

For `CCCNC(=O)Nc1ncnc2c1ncn2C1OC(COc2ccccc2C(=O)O)C2O[C@H](c3ccc(F)cc3)OC21` (some centres unmarked) [Compound 15], the half-inhibitory concentration (IC50) in the data set on washed human platelets (setting [2]) was found to be 190 nM. Besides, the bioavailability in data set [1] (setting [3]) was around 53%; in data set [1] (setting [4]) it was 14.3 to 14.6%; in data set [1] (setting [6]), 29.5 to 29.9%. In addition, the “bioavailability following oral administration (in words)” value in data set [1] is “high bioavailability”. Further, the “% F, salt solution” value in data set [1] (administered as solution of the sodium salt form) is 52.5-53.4%.

Turning to `CCCCNC(=O)Nc1ncnc2c1ncn2C1OC(COc2c(OC)cccc2C(=O)O)C2O[C@H](c3ccc(F)cc3)OC21` (some centres unmarked) [Compound 19], the IC50 was below 100 nM with washed human platelets (setting [2]) and 62 nM in the data set on washed human platelets (setting [5]).

In the case of `CCCNC(=O)Nc1ncnc2c1ncn2C1OC(COc2cc(OC)ccc2C(=O)O)C2O[C@H](c3ccc(F)cc3)OC21` (some centres unmarked) [Compound 20], the 50% inhibitory concentration (IC50) was below 100 nM in the data set on washed human platelets (setting [2]) and 92 nM in the data set with washed human platelets (setting [5]).

As for `CCCCNC(=O)Nc1ncnc2c1ncn2C1OC(COc2cc(OC)ccc2C(=O)O)C2O[C@H](c3ccc(F)cc3)OC21` (some centres unmarked) [Compound 21], the values for the IC50 with washed human platelets (setting [2]) and in the data set with washed human platelets (setting [5]) were below 100 nM and 87 nM, respectively.

Regarding `COc1ccc(C(=O)O)c(OCC2OC(n3cnc4c(NC(=O)NC5CC5)ncnc43)C3O[C@@H](c4ccc(F)cc4)OC23)c1` (some centres unmarked) [Compound 22], the IC50 is below 100 nM with washed human platelets (setting [2]) and 99 nM with washed human platelets (setting [5]).

In the case of `COc1ccc(C(=O)O)c(OCC2OC(n3cnc4c(NC(=O)NCC5CC5)ncnc43)C3O[C@@H](c4ccc(F)cc4)OC23)c1` (some centres unmarked) [Compound 23], the IC50 with washed human platelets (setting [2]) is below 100 nM; in the data set with washed human platelets (setting [5]), 99 nM.

`CCNC(=O)Nc1ncnc2c1ncn2C1OC(COc2c(F)cccc2C(=O)O)C2O[C@H](c3ccc(F)cc3)OC21` (some centres unmarked) [Compound 25]: the “% inhibition of ADP-induced platelet aggregation at fixed concentration” value (shortened to “% inhibition”) in the data set with washed human platelets (washed human platelets) stood at 46% inh. @ 0.3 μM.

Regarding `CCCNC(=O)Nc1ncnc2c1ncn2C1OC(COc2cc(F)ccc2C(=O)O)C2O[C@H](c3ccc(F)cc3)OC21` (some centres unmarked) [Compound 28], the “% inhibition” value in the data set on washed human platelets (washed human platelets) came out at 64% inh. @ 0.3 μM.

Turning to `CCCNC(=O)Nc1ncnc2c1ncn2C1OC(COc2cccc(F)c2C(=O)O)C2O[C@H](c3ccc(F)cc3)OC21` (some centres unmarked) [Compound 30], the “% inhibition” value in the data set on washed human platelets (washed human platelets) is 56% inh. @ 0.3 μM.

With `COc1cccc(C(=O)O)c1OCC1OC(n2cnc3c(NC(=O)NC4CC4)ncnc32)C2O[C@@H](c3ccc(F)cc3)OC12` (some centres unmarked) [Compound 33], in the data set with washed human platelets (washed human platelets), the “% inhibition” value turned out to be 56% inh. @ 0.3 μM.

Turning to `CCNC(=O)Nc1ncnc2c1ncn2C1OC(COc2ccc(OC)cc2C(=O)O)C2O[C@H](c3ccc(F)cc3)OC21` (some centres unmarked) [Compound 34], in the data set on washed human platelets (washed human platelets), the “% inhibition” value came out at 52% inh. @ 0.3 μM.

In the case of `O=C(Nc1ncnc2c1ncn2C1OC(COc2cc(F)ccc2C(=O)O)C2O[C@H](c3ccc(F)cc3)OC21)NC1CC1` (some centres unmarked) [Compound 35], the “% inhibition” value in the data set with washed human platelets (washed human platelets) amounted to 61% inh. @ 0.3 μM.

The values above are taken from US7504497B2, “Orally bioavailable compounds and methods for inhibiting platelet aggregation” (Inspire Pharmaceuticals, Inc., priority 2005, dated 2009).
